Where a name gives a salt, the structure may show the parent alone.
How the values were obtained:
Assay type in all cases: cell-based
[1] = tested on: CPP19 liver metastatic CRC patient-derived cells; assay: CellTiter-Glo growth inhibition, liver metastatic CRC patient-derived cells CPP19; conditions: Homo sapiens; CPP19, 72 h
Excerpt: (§1) Patient derived liver metastasis cells (CPP19, 30, 36 and CPP45—see table 1 for clinical descriptions) were maintained in complete DMEM (Gibco) with 10% FBS. Cells were obtained from biopsies provided by CHU-Caremeau (Nimes, France) within an approved protocol. Signed informed consents were obtained from patients prior to samples acquisition in accordance with all ethical and legal aspects. Tumors were washed, minced into fragments (<2 mm^3) and digested with liberase H (0.26 U/mL, Roche) resuspended in Accumax (Sigma-Aldrich). After 2 hours at 37° C., cell suspension was filtered through a […] to obtain a single cell suspension and plated in DMEM medium, supplemented with FBS, glutamine, antibiotics and non-essential aminoacids. When a monolayer of patient-derived tumor cells was formed, cells were detached using trypsin/EDTA and resuspended in DMEM with 10% FBS (for adherent cells) or defined M11 media (for sphere formation). Cells were cultured in a humidified atmosphere at 37° C. and 5% CO2.
(§2) Cells were plated at 10^4 cells per well in P96 well plates in DMEM with 10% FBS. After 24 hours, cells were treated with compound 2-3 and cell viability was assessed 72 h post-treatment by CellTiter-Glo® Luminescent Cell Viability Assay (Promega). EC50 were calculated using GraphPad Prism Software v6 (Graphpad Software, Inc La Jolla, Calif.). […]

A375 cell line = assay: CellTiter-Glo growth inhibition assay, A375; conditions: Homo sapiens, A-375; A375, malignant melanoma, 72 h
Description: (§3) All cell lines were maintained in medium containing 1% penicillin-streptomycin (Dutscher, P06-07100) and 10% Fetal Bovine Serum (Gibco, W3387L) except 20% for KG-1 cell line and PBMC, and cultured at 37° C. with 5% CO2.
HepG2, Huh7, HCT-116, MDA-MB-231 and A375 cell lines were cultured in Dulbecco's modified Eagle's medium (Dutscher, L0103).
(§4) Cell viability was measured using the CellTiter-Glo® luminescent cell viability assay as described by the manufacturer (Promega, Ref G7571) using an Infinite F200Pro luminometer (Tecan). Briefly, for adherent cells, cells were plated onto 96-well plates (white with clear bottom) in 90 μL of media per well and were allowed to grow overnight before the assay. For cells growing in suspension, cells were plated onto 96-well plates immediately before the assay.
(§5) Compounds were added at different concentrations to each well, and cell cultures were incubated for 72 h. Vehicle (H2O) was used as a control, and all compounds were tested in a constant percentage of H2O. After addition of 100 μL of CellTiter-Glo®, luminescence was measured using an Infinite F200Pro (Tecan). EC50 values were determined as the dose of compound required to reduce luminescent values to 50% of the signal obtained for untreated cell cultures. The experimental data were analyzed using a computer program, Graphpad Prism v5 (GraphPad Software, Inc. La Jolla, Calif.). […]

MV4-11 cell line = assay: CellTiter-Glo growth inhibition assay, MV4-11; conditions: Homo sapiens; MV4-11, biphenotypic B myelomonocytic leukemia, 72 h
Description: as §3
KG-1 and MV4-11 cell line were maintained in Iscove's modified Dulbecco's medium (Dutscher, L0190).
as §4, §5

[2] = tested on: CPP45 liver metastatic CRC patient-derived cells; assay: CellTiter-Glo growth inhibition, liver metastatic CRC patient-derived cells CPP45; conditions: Homo sapiens; CPP45, 72 h
Excerpt: as §1, §2

786-O cell line = assay: CellTiter-Glo growth inhibition assay, 786-O; conditions: Homo sapiens, 786-0, 72 h
Description: CAKI-1 and 786-0 cell lines were maintained in RPMI 1640 medium (Dutscher, L0498) containing 1% penicillin-streptomycin (Dutscher, P06-07100) and 10% Fetal Bovine Serum (Gibco, W3387L) and cultured at 37° C. with 5% CO2.
as §4, with “Briefly,” for “Briefly, for adherent cells,”, “assay.” for “assay. For cells growing in suspension, cells were plated onto 96-well plates immediately before the assay.”
Compounds 2-3 and two reference compounds (Sorafenib and Sunitinib) were added at different concentrations to each well, and cell cultures were incubated for 72 h. For compound 2-3 analysis, H2O was used as a negative control (=untreated) and all concentrations were tested in a constant percentage of H2O. For Sorafenib and Sunitinib analysis, DMSO was used as a negative control (=untreated) and all concentrations were tested in a constant percentage of DMSO. 72 h after incubation of compounds, 100 μL of CellTiter-Glo® were added to each well and luminescence was measured using an Infinite F200Pro (Tecan). EC50 values were determined as the dose of compound required to reduce luminescent values to 50% of the signal obtained for untreated cell cultures. The experimental data were analyzed using a computer program, Graphpad Prism v5 (GraphPad Software, Inc. La Jolla, Calif.). All experiments were at least done in triplicate and repeated at least three independent times.

ARPE-19 cell line = assay: CellTiter-Glo growth inhibition assay, ARPE-19; conditions: ARPE-19, human retinal pigmented epithelium, 72 h
Description: as §3
ARPE-19 cell line was cultured in DMEM:F12 medium (Dutscher, L0093).
as §4, §5

EC50 (A375 cell line): 1000 nM | EC50 (MV4-11 cell line): 2300 nM | EC50 (786-O cell line): 2100 nM
SMILES: CC(C)(C)NC1CCN(c2cc(NCc3ccc(Cl)cc3)nc3ccccc23)CC1 [Compound 2-3, 2-(4-chlorobenzylamino)-4-(4-tert-butylaminopiperidin-1-yl)-quinoline hydrochloride salt]
EC50 [1]: 1880 nM | EC50 [2]: 1120 nM | EC50 (ARPE-19 cell line): ~6900 nM
